How the values were obtained:
Assay in all cases: relative viability (nuclei count vs DMSO), 5 days (fraction); higher = more cells survive
R406 + Dasatinib = compound: COc1cc(Nc2ncc(F)c(Nc3ccc4c(n3)NC(=O)C(C)(C)O4)n2)cc(OC)c1OC [R406] + Cc1nc(Nc2ncc(C(=O)Nc3c(C)cccc3Cl)s2)cc(N2CCN(CCO)CC2)n1 [Dasatinib] (partner 0.075 µM)
Summary of the method: (§1)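 Relative viability equals treated-well nuclei counts divided by vehicle-well nuclei counts. Counts came from 4× images of lung cancer cell lines grown in 1536-well plates for 5 days after pin-tool dosing on the day after seeding. Dosing used one drug alone or a fixed anchor-drug dose plus five library-drug doses (not always all listed) in √10 steps, and values are medians of duplicate plates.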

Daporinad + Foretinib = compound: O=C(/C=C/c1cccnc1)NCCCCC1CCN(C(=O)c2ccccc2)CC1 [Daporinad] + COc1cc2c(Oc3ccc(NC(=O)C4(C(=O)Nc5ccc(F)cc5)CC4)cc3F)ccnc2cc1OCCCN1CCOCC1 [Foretinib] (partner 0.25 µM)
Summary of the method: as §1

Daporinad + Pictilisib = compound: O=C(/C=C/c1cccnc1)NCCCCC1CCN(C(=O)c2ccccc2)CC1 [Daporinad] + CS(=O)(=O)N1CCN(Cc2cc3nc(-c4cccc5[nH]ncc45)nc(N4CCOCC4)c3s2)CC1 [Pictilisib] (partner 1 µM)
Summary of the method: as §1

Daporinad + Trametinib = compound: O=C(/C=C/c1cccnc1)NCCCCC1CCN(C(=O)c2ccccc2)CC1 [Daporinad] + CC(=O)Nc1cccc(-n2c(=O)n(C3CC3)c(=O)c3c(Nc4ccc(I)cc4F)n(C)c(=O)c(C)c32)c1 [Trametinib] (partner 0.02 µM)
Summary of the method: as §1

Cell Line	relative viability (R406 + Dasatinib; first compound 0.08 µM)	relative viability (R406 + Dasatinib; first compound 0.253 µM)	relative viability (R406 + Dasatinib; first compound 0.8 µM)	relative viability (R406 + Dasatinib; first compound 2.53 µM)	relative viability (R406 + Dasatinib; first compound 8 µM)	relative viability (Daporinad + Foretinib; first compound 0.0005 µM)	relative viability (Daporinad + Foretinib; first compound 0.001581 µM)	relative viability (Daporinad + Foretinib; first compound 0.005 µM)	relative viability (Daporinad + Foretinib; first compound 0.01581 µM)	relative viability (Daporinad + Pictilisib; first compound 0.0005 µM)	relative viability (Daporinad + Pictilisib; first compound 0.001581 µM)	relative viability (Daporinad + Pictilisib; first compound 0.005 µM)	relative viability (Daporinad + Pictilisib; first compound 0.01581 µM)	relative viability (Daporinad + Trametinib; first compound 0.0005 µM)	relative viability (Daporinad + Trametinib; first compound 0.001581 µM)	relative viability (Daporinad + Trametinib; first compound 0.005 µM)	relative viability (Daporinad + Trametinib; first compound 0.01581 µM)
ABC-1	0.535	0.54	0.415	0.363	0.298	1.09	1.01	1.01	0.662	0.652	0.934	0.734	0.743				
SK-MES-1	0.397	0.371	0.363	0.137	0.136	0.837	1.19	0.916	1.21	0.296	0.4	0.345	0.306	0.561	0.524	0.613	0.743
PC-14	0.271	0.241	0.283	0.105	0.0312	0.985	1.06	1	1.01	0.656	0.726	0.876	0.735	0.657	0.654	0.722	0.572
SW 900	0.592	0.384	0.79	0.23	0.0973	0.881	0.765	0.885	0.709					0.668		1.03	0.663
A549						1.03	0.964	0.887	0.867	0.548	0.529	0.61	0.469				
A-427	0.743	0.746	0.74	0.427	0.54	1.01	1.06	1.08	0.596	0.559	0.79	0.684	0.716	0.695	0.825	0.778	0.708
NCI-H1792	0.781	0.906	0.871	0.551	0.401					0.212	0.317	0.25	0.377	0.412	0.471	0.421	0.453
LCLC-97TM1	0.83	0.863	0.793	0.722	0.602	0.832	0.929	1.08	1.03	0.2	0.185	0.284	0.26	0.188	0.158	0.189	0.177
NCI-H1703						0.33	0.347	0.302	0.282	0.236	0.283	0.259	0.265				
LCLC-103H	0.491	0.538	0.539	0.393	0.26	0.846	0.834	0.884	0.868	0.693	0.649	0.619	0.606	0.738	0.69	0.701	0.757
RERF-LC-KJ	0.782	0.878	0.939	0.678	0.503	0.787	0.809	0.911	0.886	0.58	0.529	0.525	0.695	0.788	1.01	0.955	0.921
BEN	0.337	0.312	0.309	0.413	0.31	0.513	0.722	0.735	0.773	0.624	0.62	0.597	0.776	1.01	0.996	1.06	1.18
NCI-H1666	0.811	0.943	0.891	0.648	0.409	0.962	0.958	0.91	0.943	0.508	0.482	0.456	0.494	0.692	0.843	0.821	0.9
LC-2-ad	0.572	0.649	0.62	0.282	0.203	1.05	0.97	0.969	1.06	0.389	0.514	0.64	0.675	0.907	0.983	0.863	0.914
SW 1573	0.492	0.539	0.602	0.366	0.149	0.962	0.701	1.06	0.744	0.524	0.552	0.524	0.36	0.499	0.45	0.447	0.28
ChaGo-K-1	0.568	0.579	0.661	0.498	0.442	0.968	0.943	0.966	0.382	0.774	0.64	0.702	0.578	0.86	0.914	0.767	0.428
COR-L 105	0.332	0.387	0.354	0.317	0.204	1.09	0.812	0.983	1.14	0.348	0.364	0.36	0.537	0.445	0.41	0.496	0.469
Calu-6						0.768	0.874	0.772	0.35	0.917	0.907	0.81	0.421				
NCI-H1648														0.469	0.418	0.417	0.447
EBC-1						0.101	0.0907	0.0742	0.0756	0.335	0.43	0.37	0.469				
NCI-H1299						1.12	1.08	1.14	1.04	0.736	0.809	0.839	0.739				
NCI-H522	0.78	0.883	0.869	0.725	0.722									0.906	0.753	0.67	0.835
IA-LM						1.06	1.12	1.29	1.26	0.357	0.321	0.308	0.307				
NCI-H1623	0.534	0.507	0.587	0.482	0.526	0.726	0.754	0.801	0.866								
